Reference: patent publication US20070299139A1, “Lyophilisate Comprising N-Diaminomethylene-2-Methyl-4,5-Di(Methylsulfonyl)Benzamide” (priority 2004, published 2007)

Experiment: Stability of the active compound in aqueous solution
Format: physicochemical
Details: hydrolyses
Text: The development of this active compound in intensive medicine requires that it is available in parenterally administrable form, best as aqueous solution.

stability in aqueous solution: not stable in aqueous solution
Compound: Cc1cc(S(C)(=O)=O)c(S(C)(=O)=O)cc1C(=O)NC(=N)N [N-diaminomethylene-2-methyl-4,5-di(methylsulfonyl)benzamide]
